According to the NIST ThermoML archive (doi:10.1021/je050020m):

Test: xn = mol fraction of the nth substance listed
Conditions: Liquid, Vibrating tube method

CCCCCCCCCC [decane] + O=C=O
Conditions	mass density [kg/m3]
323.05 K, 14026 kPa, x2 = 0.0551	721.01
323.05 K, 15008 kPa, x2 = 0.0551	721.76
323.05 K, 16035 kPa, x2 = 0.0551	722.62
323.05 K, 17008 kPa, x2 = 0.0551	723.4
323.05 K, 18019 kPa, x2 = 0.0551	724.22
323.05 K, 18994 kPa, x2 = 0.0551	724.89
323.05 K, 20009 kPa, x2 = 0.0551	725.73
323.05 K, 21010 kPa, x2 = 0.0551	726.47
323.05 K, 21987 kPa, x2 = 0.0551	727.22
323.05 K, 23060 kPa, x2 = 0.0551	728.04
323.05 K, 23980 kPa, x2 = 0.0551	728.74
323.05 K, 25055 kPa, x2 = 0.0551	729.61
323.06 K, 5014 kPa, x2 = 0.2369	719.6
323.06 K, 6022 kPa, x2 = 0.2369	720.66
323.06 K, 7021 kPa, x2 = 0.2369	721.73
323.06 K, 7029 kPa, x2 = 0.4536	732.05
323.06 K, 8017 kPa, x2 = 0.4536	733.42
323.06 K, 8020 kPa, x2 = 0.2369	722.8
323.06 K, 9010 kPa, x2 = 0.2369	723.79
323.06 K, 9018 kPa, x2 = 0.4536	734.79
323.06 K, 10024 kPa, x2 = 0.4536	736.13
323.06 K, 10030 kPa, x2 = 0.2369	724.84
323.06 K, 11018 kPa, x2 = 0.2369	725.81
323.06 K, 11019 kPa, x2 = 0.4536	737.41
323.06 K, 12021 kPa, x2 = 0.2369	726.78
323.06 K, 12025 kPa, x2 = 0.4536	738.69
323.06 K, 13001 kPa, x2 = 0.2369	727.75
323.06 K, 13003 kPa, x2 = 0.4536	739.89
323.06 K, 14021 kPa, x2 = 0.2369	728.7
323.06 K, 14027 kPa, x2 = 0.4536	741.16
323.06 K, 15001 kPa, x2 = 0.4536	742.33
323.06 K, 15014 kPa, x2 = 0.2369	729.63
323.06 K, 16010 kPa, x2 = 0.2369	730.54
323.06 K, 16024 kPa, x2 = 0.4536	743.53
323.06 K, 17006 kPa, x2 = 0.2369	731.46
323.06 K, 17010 kPa, x2 = 0.4536	744.68
323.06 K, 18028 kPa, x2 = 0.2369	732.36
323.06 K, 18030 kPa, x2 = 0.4536	745.84
323.06 K, 19000 kPa, x2 = 0.4536	746.93
323.06 K, 19016 kPa, x2 = 0.2369	733.24
323.06 K, 20015 kPa, x2 = 0.2369	734.11
323.06 K, 20028 kPa, x2 = 0.4536	748.09
323.06 K, 21001 kPa, x2 = 0.4536	749.17
323.06 K, 21027 kPa, x2 = 0.2369	735
323.06 K, 22020 kPa, x2 = 0.4536	750.24
323.06 K, 22023 kPa, x2 = 0.2369	735.85
323.06 K, 23012 kPa, x2 = 0.4536	751.33
323.06 K, 23022 kPa, x2 = 0.2369	736.71
323.06 K, 24006 kPa, x2 = 0.2369	737.58
323.06 K, 24021 kPa, x2 = 0.4536	752.42
323.06 K, 25004 kPa, x2 = 0.2369	738.42
323.06 K, 25029 kPa, x2 = 0.4536	753.51
332.91 K, 12008 kPa, x2 = 0.8114	740.55
332.91 K, 13051 kPa, x2 = 0.8114	744.82
332.91 K, 14018 kPa, x2 = 0.8114	748.57
332.91 K, 15048 kPa, x2 = 0.8114	752.37
332.91 K, 15985 kPa, x2 = 0.8114	755.64
332.91 K, 17015 kPa, x2 = 0.8114	759.04
332.91 K, 18008 kPa, x2 = 0.8114	762.27
332.91 K, 19002 kPa, x2 = 0.8114	765.33
332.91 K, 20017 kPa, x2 = 0.8114	768.38
332.91 K, 21018 kPa, x2 = 0.8114	771.25
332.91 K, 22044 kPa, x2 = 0.8114	774.13
332.91 K, 23040 kPa, x2 = 0.8114	776.83
332.91 K, 24008 kPa, x2 = 0.8114	779.4
332.91 K, 25047 kPa, x2 = 0.8114	782.09
332.94 K, 1997 kPa, x2 = 0.0551	702.61
332.94 K, 3024 kPa, x2 = 0.0551	703.63
332.94 K, 4011 kPa, x2 = 0.0551	704.59
332.94 K, 5026 kPa, x2 = 0.2369	711.09
332.94 K, 5040 kPa, x2 = 0.0551	705.62
332.94 K, 6015 kPa, x2 = 0.2369	712.23
332.94 K, 6062 kPa, x2 = 0.0551	706.62
332.94 K, 7009 kPa, x2 = 0.0551	707.53
332.94 K, 7015 kPa, x2 = 0.4536	721.74
332.94 K, 7019 kPa, x2 = 0.2369	713.38
332.94 K, 7978 kPa, x2 = 0.0551	708.43
332.94 K, 8020 kPa, x2 = 0.2369	714.47
332.94 K, 8025 kPa, x2 = 0.4536	723.26
332.94 K, 9016 kPa, x2 = 0.4536	724.72
332.94 K, 9017 kPa, x2 = 0.2369	715.56
332.94 K, 9037 kPa, x2 = 0.0551	709.44
332.94 K, 9992 kPa, x2 = 0.0551	710.31
332.94 K, 10015 kPa, x2 = 0.2369	716.65
332.94 K, 10023 kPa, x2 = 0.4536	726.15
332.94 K, 11009 kPa, x2 = 0.2369	717.69
332.94 K, 11014 kPa, x2 = 0.4536	727.55
332.94 K, 11032 kPa, x2 = 0.0551	711.27
332.94 K, 12001 kPa, x2 = 0.4536	728.9
332.94 K, 12005 kPa, x2 = 0.9663	511.9
332.94 K, 12013 kPa, x2 = 0.0551	712.13
332.94 K, 12015 kPa, x2 = 0.2369	718.74
332.94 K, 12511 kPa, x2 = 0.9663	544.43
332.94 K, 13003 kPa, x2 = 0.9663	571.24
332.94 K, 13015 kPa, x2 = 0.2369	719.76
332.94 K, 13027 kPa, x2 = 0.0551	713.03
332.94 K, 13045 kPa, x2 = 0.4536	730.28
332.94 K, 13998 kPa, x2 = 0.4536	731.55
332.94 K, 14011 kPa, x2 = 0.2369	720.77
332.94 K, 14015 kPa, x2 = 0.9663	614.37
332.94 K, 14018 kPa, x2 = 0.0551	713.89
332.94 K, 15000 kPa, x2 = 0.4536	732.81
332.94 K, 15003 kPa, x2 = 0.2369	721.75
332.94 K, 15021 kPa, x2 = 0.0551	714.75
332.94 K, 15026 kPa, x2 = 0.9663	648.23
332.94 K, 15997 kPa, x2 = 0.0551	715.59
332.94 K, 16019 kPa, x2 = 0.2369	722.73
332.94 K, 16032 kPa, x2 = 0.4536	734.14
332.94 K, 16035 kPa, x2 = 0.9663	674.85
332.94 K, 16998 kPa, x2 = 0.0551	716.44
332.94 K, 17015 kPa, x2 = 0.2369	723.7
332.94 K, 17018 kPa, x2 = 0.4536	735.36
332.94 K, 17018 kPa, x2 = 0.9663	695.62
332.94 K, 18016 kPa, x2 = 0.9663	713.48
332.94 K, 18021 kPa, x2 = 0.4536	736.57
332.94 K, 18026 kPa, x2 = 0.2369	724.66
332.94 K, 18031 kPa, x2 = 0.0551	717.29
332.94 K, 19002 kPa, x2 = 0.9663	728.62
332.94 K, 19004 kPa, x2 = 0.0551	718.07
332.94 K, 19012 kPa, x2 = 0.4536	737.79
332.94 K, 19022 kPa, x2 = 0.2369	725.6
332.94 K, 20002 kPa, x2 = 0.0551	718.88
332.94 K, 20002 kPa, x2 = 0.4536	738.93
332.94 K, 20012 kPa, x2 = 0.2369	726.51
332.94 K, 20033 kPa, x2 = 0.9663	742.59
332.94 K, 21014 kPa, x2 = 0.0551	719.68
332.94 K, 21022 kPa, x2 = 0.9663	754.63
332.94 K, 21024 kPa, x2 = 0.2369	727.44
332.94 K, 21028 kPa, x2 = 0.4536	740.14
332.94 K, 22021 kPa, x2 = 0.2369	728.35
332.94 K, 22021 kPa, x2 = 0.4536	741.29
332.94 K, 22027 kPa, x2 = 0.0551	720.5
332.94 K, 22029 kPa, x2 = 0.9663	765.58
332.94 K, 23009 kPa, x2 = 0.4536	742.44
332.94 K, 23010 kPa, x2 = 0.2369	729.26
